Where no end group is shown, it is not given here.
What was measured:
Skh: hr1 hairless mice = test: 8-OHdG (8oxodG) immunohistochemistry in UV-irradiated mouse skin; type: in vivo; details: topical immediately after 3 MED UVR; IK34720 20, 100 or 200 μg, Calcitriol 11.4 pmol/cm2; biopsy 3 h post-UVR; vs vehicle
Method: 8-hydroxy-2′-deoxyguanosine or 8-oxo-7,8-dihydro-2′-deoxyguanosine (8-OHdG/8-oxodG) is one of the predominant forms of free radical-induced in oxidative lesions with the concentrations of 8-OHdG within a cell being a measurement of oxidative stress. The role of the polypeptide IK34720 (SEQ ID NO: 3) in UV-induced oxidative stress was assessed using the following protocol.
Female Skh: hr1 hairless mice were exposed to solar simulated UV-irradiation (UVR) by exposure to one fluorescent UVB tube (Philips TL40W 12R/S, Eindhoven, The Netherlands) in combination with 6 UVA tubes (Hitachi 40W F40T 10/BL, Tokyo, Japan). The UVA and UVB irradiation was filtered through a 0.125 mm cellulose acetate sheet (Grafix Plastics, Cleveland, OH) as previously described (Dixon K M et al., Biochem Mol Biol, 2007, 103 (3-5): 451-6). […]
Biopsies were taken from UV-irradiated dorsal skin 3 h post-UVR and fixed in Histochoice fixative (Amresco, Solon OH) for 6 h. […] Sections were subjected to routine hematoxylin and eosin staining for visualization of sunburn cells at 40× magnification, and the number of sunburn cells per linear millimetre of skin section recorded.
Levels of 8-oxo-2′-deoxyguanosine (8oxodG) indicative of oxidative stress were detected by immunohistochemistry and image analysis (Dixon K M et al., Cancer Prev Res 2011, 4 (9): 1485-94) as set out below. […]

Smad4 = Smad4 expression in UV treated cells (data not shown); type: cell-based

RSKAKNPLYRRRRRRRRR (not fully specified (some residues)) [IK34720]
8-OHdG formation in the skin (Skh: hr1 hairless mice): inhibits 8-OHdG formation | Smad4 expression in UV treated cells (Smad4): restored Smad4 expression

From patent US20250262139A1, “POLYPEPTIDES AND METHODS FOR IMPROVING SKIN CONDITIONS” (INTERK PEPTIDE THERAPEUTICS LIMITED, priority 2020, published 2025)
